# Laboratory results published in patent US9302999B2, “Substituted triazoles as herbicides” (E. I. DU PONT DE NEMOURS AND COMPANY, priority 2012, dated 2016).
# Columns and labels:
# Type in all cases: in vivo
# rice (Oryza sativa) = test: Test C flooded paddy test: rice; conditions: scale 0 to 100 (0 no effect, 100 complete control)
# In short: (§1)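 Plants were grown to the 2-leaf stage, pots flooded to 3 cm above soil, and test compounds applied directly to the paddy water, with that depth held throughout. After 13 to 15 days in a greenhouse, injury was visually rated against controls on a 0 (no effect) to 100 (complete control) scale.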
# [1] = test system: barnyardgrass (Echinochloa crus-galli); test: Test C flooded paddy test: barnyardgrass; conditions: scale 0 to 100 (0 no effect, 100 complete control)
# In short: as §1
# [2] = test system: foxtail, giant (giant foxtail, Setaria faberii); test: Test A pre-/postemergence: foxtail, giant; conditions: for Foxtail, Giant plant response rating: Postemergence; for Plant response rating, Foxtail, Giant: Preemergence
# In short: (§2)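 Injury was scored visually on a 0 (no effect) to 100 (complete control) scale versus untreated controls roughly ten days after treatment in the greenhouse. Compounds, formulated in surfactant-containing non-phytotoxic solvent, went on as soil-directed preemergence spray or postemergence to one- to two-leaf plants 2–10 cm tall.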
# [3] = test system: wheat (Triticum aestivum); test: Test A pre-/postemergence: wheat; conditions: for Wheat plant response rating: Postemergence; for Plant response rating, Wheat: Preemergence
# In short: as §2
# [4] = test system: pigweed (Amaranthus retroflexus); test: Test A pre-/postemergence: pigweed; conditions: for Pigweed plant response rating: Postemergence; for Plant response rating, Pigweed: Preemergence
# In short: as §2
# [5] = test system: sedge, umbrella (small-flower umbrella sedge, Cyperus difformis); test: Test C flooded paddy test: sedge, umbrella; conditions: scale 0 to 100 (0 no effect, 100 complete control)
# In short: as §1
# [6] = test system: velvetleaf (Abutilon theophrasti); test: Test A pre-/postemergence: velvetleaf; conditions: for Velvetleaf plant response rating: Postemergence; for Plant response rating, Velvetleaf: Preemergence
# In short: as §2
# corn (Zea mays) = test: Test A pre-/postemergence: corn; conditions: for Corn plant response rating: Postemergence; for Plant response rating, Corn: Preemergence
# In short: as §2
# [7] = test system: morningglory (Ipomoea spp.); test: Test A pre-/postemergence: morningglory; conditions: for Morningglory plant response rating: Postemergence; for Plant response rating, Morningglory: Preemergence
# In short: as §2
# [8] = test system: barnyardgrass (Echinochloa crus-galli); test: Test A pre-/postemergence: barnyardgrass; conditions: for Barnyardgrass plant response rating: Postemergence; for Plant response rating, Barnyardgrass: Preemergence
# In short: as §2
# [9] = test system: ducksalad (Heteranthera limosa); test: Test C flooded paddy test: ducksalad; conditions: scale 0 to 100 (0 no effect, 100 complete control)
# In short: as §1
# [10] = test system: crabgrass, large (large crabgrass, Digitaria sanguinalis); test: Test A pre-/postemergence: crabgrass, large; conditions: for Crabgrass, Large plant response rating: Postemergence; for Plant response rating, Crabgrass, Large: Preemergence
# In short: as §2
# [11] = Flood (flooded paddy test), 62 g ai/ha, visual rating after 13 to 15 days
# [12] = Flood (flooded paddy test), 125 g ai/ha, visual rating after 13 to 15 days
# [13] = Flood (flooded paddy test), 250 g ai/ha, visual rating after 13 to 15 days
# [14] = 125 g ai/ha, 0 to 100 scale, 0 is no effect, 100 is complete control
# [15] = 500 g ai/ha, visual rating on 0 to 100 scale (0 no effect, 100 complete control), approximately ten days
# [16] = 125 g ai/ha, 0 to 100 scale (0 no effect, 100 complete control)
# [17] = 500 g ai/ha, 0 to 100 scale, 0 is no effect, 100 is complete control
structure (smiles),measurement,setting,value
Cc1nn(-c2cccc(C(F)(F)F)n2)nc1C(=O)c1cccc(C(F)(F)F)c1 [Compound 57],"Plant response rating, Rice",rice (Oryza sativa); [11],0
same,"Plant response rating, Rice",rice (Oryza sativa); [12],0
same,"Plant response rating, Rice",rice (Oryza sativa); [13],0
same,"Plant response rating, Rice","rice (Oryza sativa); Flood, 31 g ai/ha",0
same,"Plant response rating, Barnyardgrass",[1]; [11],0
same,"Plant response rating, Barnyardgrass",[1]; [12],0
same,"Plant response rating, Barnyardgrass",[1]; [13],0
same,"Plant response rating, Barnyardgrass","[1]; Flood, 31 g ai/ha",0
same,"Foxtail, Giant plant response rating",[2]; [14],0
same,"Foxtail, Giant plant response rating",[2]; [15],0
same,"Plant response rating, Foxtail, Giant",[2]; [16],0
same,"Plant response rating, Foxtail, Giant",[2]; [17],0
same,Wheat plant response rating,[3]; [14],0
same,Wheat plant response rating,[3]; [15],0
same,"Plant response rating, Wheat",[3]; [16],0
same,"Plant response rating, Wheat",[3]; [17],0
same,Pigweed plant response rating,[4]; [14],0
same,Pigweed plant response rating,[4]; [15],10
same,"Plant response rating, Pigweed",[4]; [16],0
same,"Plant response rating, Pigweed",[4]; [17],0
same,"Plant response rating, Sedge, Umbrella",[5]; [11],0
same,"Plant response rating, Sedge, Umbrella",[5]; [12],0
same,"Plant response rating, Sedge, Umbrella",[5]; [13],0
same,"Plant response rating, Sedge, Umbrella","[5]; Flood, 31 g ai/ha",0
same,Velvetleaf plant response rating,[6]; [14],0
same,Velvetleaf plant response rating,[6]; [15],0
same,"Plant response rating, Velvetleaf",[6]; [16],0
same,"Plant response rating, Velvetleaf",[6]; [17],0
same,Corn plant response rating,corn (Zea mays); [14],0
same,Corn plant response rating,corn (Zea mays); [15],0
same,"Plant response rating, Corn",corn (Zea mays); [16],0
same,"Plant response rating, Corn",corn (Zea mays); [17],0
same,Morningglory plant response rating,[7]; [14],0
same,Morningglory plant response rating,[7]; [15],0
same,"Plant response rating, Morningglory",[7]; [16],0
same,"Plant response rating, Morningglory",[7]; [17],0
same,Barnyardgrass plant response rating,[8]; [14],0
same,Barnyardgrass plant response rating,[8]; [15],0
same,"Plant response rating, Barnyardgrass",[8]; [16],0
same,"Plant response rating, Barnyardgrass",[8]; [17],0
same,"Plant response rating, Ducksalad",[9]; [11],0
same,"Plant response rating, Ducksalad",[9]; [12],0
same,"Plant response rating, Ducksalad",[9]; [13],0
same,"Plant response rating, Ducksalad","[9]; Flood, 31 g ai/ha",0
same,"Crabgrass, Large plant response rating",[10]; [14],0
same,"Crabgrass, Large plant response rating",[10]; [15],10
same,"Plant response rating, Crabgrass, Large",[10]; [16],0
same,"Plant response rating, Crabgrass, Large",[10]; [17],0
Cc1nn(-c2ccc(I)cc2)nc1C(=O)c1cccc(C(F)(F)F)c1 [Compound 61],"Plant response rating, Rice",rice (Oryza sativa); [11],0
same,"Plant response rating, Rice",rice (Oryza sativa); [12],0
same,"Plant response rating, Rice",rice (Oryza sativa); [13],0
same,"Plant response rating, Rice","rice (Oryza sativa); Flood, 31 g ai/ha",0
same,"Plant response rating, Barnyardgrass",[1]; [11],0
same,"Plant response rating, Barnyardgrass",[1]; [12],0
same,"Plant response rating, Barnyardgrass",[1]; [13],0
same,"Plant response rating, Barnyardgrass","[1]; Flood, 31 g ai/ha",0
same,"Foxtail, Giant plant response rating",[2]; [14],0
same,"Foxtail, Giant plant response rating",[2]; [15],10
same,"Plant response rating, Foxtail, Giant",[2]; [16],0
same,"Plant response rating, Foxtail, Giant",[2]; [17],10
same,Wheat plant response rating,[3]; [14],0
same,Wheat plant response rating,[3]; [15],0
same,"Plant response rating, Wheat",[3]; [16],0
same,"Plant response rating, Wheat",[3]; [17],0
same,Pigweed plant response rating,[4]; [14],40
same,Pigweed plant response rating,[4]; [15],80
same,"Plant response rating, Pigweed",[4]; [16],0
same,"Plant response rating, Pigweed",[4]; [17],10
same,"Plant response rating, Sedge, Umbrella",[5]; [11],0
same,"Plant response rating, Sedge, Umbrella",[5]; [12],0
same,"Plant response rating, Sedge, Umbrella",[5]; [13],0
same,"Plant response rating, Sedge, Umbrella","[5]; Flood, 31 g ai/ha",0
same,Velvetleaf plant response rating,[6]; [14],10
same,Velvetleaf plant response rating,[6]; [15],30
same,"Plant response rating, Velvetleaf",[6]; [16],0
same,"Plant response rating, Velvetleaf",[6]; [17],0
same,Corn plant response rating,corn (Zea mays); [14],10
same,Corn plant response rating,corn (Zea mays); [15],10
same,"Plant response rating, Corn",corn (Zea mays); [16],0
same,"Plant response rating, Corn",corn (Zea mays); [17],0
same,Morningglory plant response rating,[7]; [14],10
same,Morningglory plant response rating,[7]; [15],30
same,"Plant response rating, Morningglory",[7]; [16],0
same,"Plant response rating, Morningglory",[7]; [17],0
same,Barnyardgrass plant response rating,[8]; [14],0
same,Barnyardgrass plant response rating,[8]; [15],10
same,"Plant response rating, Barnyardgrass",[8]; [16],0
same,"Plant response rating, Barnyardgrass",[8]; [17],0
same,"Plant response rating, Ducksalad",[9]; [11],0
same,"Plant response rating, Ducksalad",[9]; [12],0
same,"Plant response rating, Ducksalad",[9]; [13],0
same,"Plant response rating, Ducksalad","[9]; Flood, 31 g ai/ha",0
same,"Crabgrass, Large plant response rating",[10]; [14],0
same,"Crabgrass, Large plant response rating",[10]; [15],10
same,"Plant response rating, Crabgrass, Large",[10]; [16],0
same,"Plant response rating, Crabgrass, Large",[10]; [17],10
Cc1nn(-c2cccc([N+](=O)[O-])c2)nc1C(=O)c1cccc(C(F)(F)F)c1 [Compound 62],"Plant response rating, Rice",rice (Oryza sativa); [11],0
same,"Plant response rating, Rice",rice (Oryza sativa); [12],0
same,"Plant response rating, Rice",rice (Oryza sativa); [13],0
same,"Plant response rating, Rice","rice (Oryza sativa); Flood, 31 g ai/ha",0
same,"Plant response rating, Barnyardgrass",[1]; [11],0
same,"Plant response rating, Barnyardgrass",[1]; [12],0
same,"Plant response rating, Barnyardgrass",[1]; [13],0
same,"Plant response rating, Barnyardgrass","[1]; Flood, 31 g ai/ha",0
same,"Foxtail, Giant plant response rating",[2]; [14],0
same,"Foxtail, Giant plant response rating",[2]; [15],0
same,"Plant response rating, Foxtail, Giant",[2]; [16],0
same,"Plant response rating, Foxtail, Giant",[2]; [17],0
same,Wheat plant response rating,[3]; [14],0
same,Wheat plant response rating,[3]; [15],0
same,"Plant response rating, Wheat",[3]; [16],0
same,"Plant response rating, Wheat",[3]; [17],0
same,Pigweed plant response rating,[4]; [14],0
same,Pigweed plant response rating,[4]; [15],10
same,"Plant response rating, Pigweed",[4]; [16],0
same,"Plant response rating, Pigweed",[4]; [17],0
same,"Plant response rating, Sedge, Umbrella",[5]; [11],0
same,"Plant response rating, Sedge, Umbrella",[5]; [12],0
same,"Plant response rating, Sedge, Umbrella",[5]; [13],0
same,"Plant response rating, Sedge, Umbrella","[5]; Flood, 31 g ai/ha",0
same,Velvetleaf plant response rating,[6]; [14],0
same,Velvetleaf plant response rating,[6]; [15],0
same,"Plant response rating, Velvetleaf",[6]; [16],0
same,"Plant response rating, Velvetleaf",[6]; [17],0
same,Corn plant response rating,corn (Zea mays); [14],0
same,Corn plant response rating,corn (Zea mays); [15],0
same,"Plant response rating, Corn",corn (Zea mays); [16],0
same,"Plant response rating, Corn",corn (Zea mays); [17],0
same,Morningglory plant response rating,[7]; [14],0
same,Morningglory plant response rating,[7]; [15],0
same,"Plant response rating, Morningglory",[7]; [16],0
same,"Plant response rating, Morningglory",[7]; [17],0
same,Barnyardgrass plant response rating,[8]; [14],0
same,Barnyardgrass plant response rating,[8]; [15],10
same,"Plant response rating, Barnyardgrass",[8]; [16],0
same,"Plant response rating, Barnyardgrass",[8]; [17],0
same,"Plant response rating, Ducksalad",[9]; [11],0
same,"Plant response rating, Ducksalad",[9]; [12],0
same,"Plant response rating, Ducksalad",[9]; [13],0
same,"Plant response rating, Ducksalad","[9]; Flood, 31 g ai/ha",0
same,"Crabgrass, Large plant response rating",[10]; [14],0
same,"Crabgrass, Large plant response rating",[10]; [15],0
same,"Plant response rating, Crabgrass, Large",[10]; [16],0
same,"Plant response rating, Crabgrass, Large",[10]; [17],0
